From US20190145961A1, “PPAR AGONIST OR LXR AGONIST FOR USE IN THE TREATMENT OF SYSTEMIC LUPUS ERYTHEMATOSUS BY MODULATION OF LAP ACTIVITY” (Washington University, priority 2016, published 2019)

Tests used:
Type in all cases: cell-based
[1] = system: bone marrow derived-macrophages from Rbcn+/+ and Rbcn−/− mice; assay: Cytokine production by Rbcn+/+ and Rbcn−/− bone marrow derived-macrophages stimulated with apoptotic thymocytes (Luminex); conditions: apoptotic thymocytes (1:10), 18 hours, supernatants
Procedure: (§1) 10^6 bone marrow derived-macrophages from Rbcn+/+ and Rbcn−/− mice were stimulated with apoptotic thymocytes (1:10) in vitro for 18 hours, in the presence of GW501516 at different concentrations (+6 μM, ++20 μM, +++60 μM). Collected supernatants were assayed for cytokine production using Luminex technology.
as §1, with “(++20” for “(+6 μM, ++20”
Supernatants were collected from macrophages fed with apoptotic thymocytes for 24 hours. Cytokines released into supernatant were analyzed by Luminex technologies (Millipore). Serum was collected from animals was analyzed by Luminex technologies (Millipore).

[2] = system: Bone marrow-derived macrophages (BMM) from Rubicon−/− mice; assay: IL-10 production by Rubicon−/− bone marrow-derived macrophages co-cultured with apoptotic thymocytes (ELISA); conditions: 60 μM; Rubicon-deficient (LAP-deficient) BMM, apoptotic thymocytes 10:1, 18 hours co-culture, supernatant ELISA; versus control treatment (FIG. 1C)
Procedure: (§2) Bone marrow-derived macrophages (BMM) were generated as previously described from Rubicon−/− mice and wild-type littermates. Macrophages were co-cultured with UV-irradiated apoptotic thymocytes (at a ratio of 10 apoptotic cells:1 macrophage) in the presence or absence of PPARγ agonists Rosiglitazone (ROS, 20 or 60 μM) or Tesaglitazar (TES, 6 or 20 μM). NT indicates no treatment. After 18 hours of co-culture, supernatants were collected and analyzed for IL-10 production via ELISA (FIG. 1A). […] Thus, PPAR agonists can be effective at restoring the LAP phenotype in LAP-deficient cells.
Bone marrow-derived macrophages (BMM) were generated as previously described from Rubicon−/− mice and wild-type littermates. […] NT indicates no treatment. After 18 hours of co-culture, supernatants were collected and analyzed for IL-10 production via ELISA FIG. 1C). […] Thus, LXR agonists can be effective at restoring the LAP phenotype in LAP-deficient cells.
Bone marrow-derived macrophages (BMDMs) were generated from bone marrow progenitors obtained from littermates. Freshly prepared bone marrow cells were cultured in DMEM medium supplemented with 10% heat-inactivated FCS, 2 mM L-glutamine, 10 mM HEPES buffer, 50 μg/ml penicillin, and non-essential amino acids in the presence of 20 ng/ml rmM-CSF (Peprotech) for 6 days. […]

[3] = system: Bone marrow-derived macrophages (BMM) from LysM-Cre+ ATG7f/f mice; assay: IL-10 production by LysM-Cre+ ATG7f/f bone marrow-derived macrophages co-cultured with apoptotic thymocytes (ELISA); conditions: 20 μM; LysM-Cre+ ATG7f/f (LAP-deficient) BMM, apoptotic thymocytes 10:1, 18 hours co-culture, supernatant ELISA; versus control treatment (FIG. 1B)
Procedure: as §2, with “LysM-Cre− ATG7f/f” for “Rubicon−/− mice”, “LysM-Cre+ ATG7f/f mice.” for “wild-type littermates.”, “PPARβ/δ agonist GW0742 (GW,” for “PPARγ agonists Rosiglitazone (ROS, 20 or 60 μM) or Tesaglitazar (TES, 6 or”, “1B).” for “1A).”
Bone marrow-derived macrophages (BMDMs) were generated from bone marrow progenitors obtained from littermates. Freshly prepared bone marrow cells were cultured in DMEM medium supplemented with 10% heat-inactivated FCS, 2 mM L-glutamine, 10 mM HEPES buffer, 50 μg/ml penicillin, and non-essential amino acids in the presence of 20 ng/ml rmM-CSF (Peprotech) for 6 days. Nonadherent cells were removed on day 6, and adherent macrophages were detached from plates and re-plated for experimental use.
Apoptosis was induced in wild-type C57Bl/6 thymocytes by UV irradiation (20 J/m^2). Thymocytes were washed twice with PBS prior to experimental use.

Cc1cc(SCc2sc(-c3ccc(C(F)(F)F)cc3)nc2C)ccc1OCC(=O)O [GW501516]
production of inflammatory cytokines in response to AT in vitro ([1]; 6, 20, 60 μM, Luminex (FIG. 7)): reduces production of inflammatory cytokines | IL-10 production in response to apoptotic cells in LAP-deficient macrophages ([1]; 20, 60 μM, Luminex (FIG. 8)): restores IL-10 production

CC(C)CC[C@@H](O)[C@@H](C)[C@H]1CC[C@H]2[C@@H]3CC=C4C[C@@H](O)CC[C@]4(C)[C@H]3CC[C@]12C [22(R)-hydroxycholesterol]
IL-10 production [2]: increased IL-10 production

Cc1cc(SCc2sc(-c3ccc(C(F)(F)F)c(F)c3)nc2C)ccc1OCC(=O)O [GW0742]
IL-10 production [3]: increased IL-10 production
